The target in one data set is PARP1 (Homo sapiens (Human), UniProt P09874). Briefly: PARP-1 enzymatic assay (HT Universal Chemiluminescent PARP Assay kit). The format is biochemical. As to the method: Materials: test compounds; HT Universal Chemiluminescent PARP Assay kit (purchased from TREVIGEN); PBS (phosphate buffer saline, purchased from Wisent); Triton X-100 (purchased from Macklin); Envision Multimode Plate Reader (PerkinElmer).
1. Washing solution: Triton X-100 was added to 1×PBS with a final concentration of Triton X-100 of 0.1%.
2. 1×PARP buffer: The 20×PARP buffer in the kit was 20-fold diluted with water to prepare a 1×PARP buffer, which was used to prepare the compounds, enzyme solutions and substrate solutions.
3. 1×Strep-Diluent solution: The 10×Strep-diluent in the kit was 10-fold diluted with water to prepare a 1×Strep-diluent solution.
The test compounds were diluted from 200 μM to 2.56 nM. The DMSO concentration was 100%. 2 μL of each of the inhibitors at various concentration gradients was added to a compound intermediate plate, and 38 μL of the 1×PARP buffer was then added. The two were mixed well for use, and the DMSO concentration was 5% at this time.
a) The 1×PARP buffer was added to a test plate at 50 μL per well, and the test plate was incubated at 25° C. for 30 min. […]
PeroxyGlow A and B in the kit were mixed at a ratio of 1:1, and the mixed solution was added to the test plate at 100 μL per well. Chemiluminescence was immediately read using a PerkinElmer Envision Multimode Plate Reader with an integration time of 0.5 s. […]

In the next data set the target is CYP2D6 (Homo sapiens (Human), UniProt P10635). Briefly: Inhibition against cytochrome P450 isoenzymes, CYP2D6. It is filed as in vitro ADME. As to conditions: human liver microsomes. Here is the method: The inhibition of the test compound against different subtypes of the human cytochrome P450 isoenzyme was determined. The test compound, a standard inhibitor (100×final concentration) and a mixed substrate working solution were prepared; the microsomes frozen in a refrigerator at −80° C. were taken out and thawed. […]
Sequence of CYP2D6 (P10635 whole entry): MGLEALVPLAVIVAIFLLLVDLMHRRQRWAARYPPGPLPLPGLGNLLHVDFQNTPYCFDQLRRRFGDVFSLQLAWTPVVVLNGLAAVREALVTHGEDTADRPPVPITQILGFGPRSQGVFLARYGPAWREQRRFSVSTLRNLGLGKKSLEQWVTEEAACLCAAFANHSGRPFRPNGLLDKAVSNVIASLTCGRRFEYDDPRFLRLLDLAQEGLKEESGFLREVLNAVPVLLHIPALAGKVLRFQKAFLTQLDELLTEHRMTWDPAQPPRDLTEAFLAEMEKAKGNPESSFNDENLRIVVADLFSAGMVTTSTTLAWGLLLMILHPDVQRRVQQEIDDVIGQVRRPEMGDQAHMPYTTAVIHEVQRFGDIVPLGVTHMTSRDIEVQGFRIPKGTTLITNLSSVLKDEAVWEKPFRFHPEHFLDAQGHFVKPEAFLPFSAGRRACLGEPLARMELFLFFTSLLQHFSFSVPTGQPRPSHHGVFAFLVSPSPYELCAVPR
In general terms: Liver microsomes are vesicles of endoplasmic reticulum, rich in cytochrome P450 enzymes.

A short description of data set [1]: Metabolic stability in liver microsomes, rat. The format is in vitro ADME. As to conditions: 1 μM, 0.5 mg/mL. Here is the method: Objective: To test the metabolic stability of the test compound in liver microsomes of three species.
Procedures: 1 μM test compound and microsomes (0.5 mg/mL) were incubated at 37° C. in the presence of an NADPH regeneration system. Positive controls were testosterone ([…]), propylamine propiophenone (2D6 substrate) and diclofenac (2C9 substrate). At 37° C., positive controls were incubated with microsomes (0.5 mg/mL) in the presence of an NADPH regeneration system. The reaction was stopped by direct mixing of the sample with cold acetonitrile containing an internal standard at various time points (0, 5, 10, 20, 30 and 60 min). The compound and microsomes were incubated for 60 min in the absence of an NADPH regeneration system. One replicate (n=1) was set at each time point. The samples were analyzed by LC/MS/MS; the concentration of the compound was characterized by the ratio of the analyte peak area to the internal standard peak area.

Sequence of PARP1 (P09874 whole entry): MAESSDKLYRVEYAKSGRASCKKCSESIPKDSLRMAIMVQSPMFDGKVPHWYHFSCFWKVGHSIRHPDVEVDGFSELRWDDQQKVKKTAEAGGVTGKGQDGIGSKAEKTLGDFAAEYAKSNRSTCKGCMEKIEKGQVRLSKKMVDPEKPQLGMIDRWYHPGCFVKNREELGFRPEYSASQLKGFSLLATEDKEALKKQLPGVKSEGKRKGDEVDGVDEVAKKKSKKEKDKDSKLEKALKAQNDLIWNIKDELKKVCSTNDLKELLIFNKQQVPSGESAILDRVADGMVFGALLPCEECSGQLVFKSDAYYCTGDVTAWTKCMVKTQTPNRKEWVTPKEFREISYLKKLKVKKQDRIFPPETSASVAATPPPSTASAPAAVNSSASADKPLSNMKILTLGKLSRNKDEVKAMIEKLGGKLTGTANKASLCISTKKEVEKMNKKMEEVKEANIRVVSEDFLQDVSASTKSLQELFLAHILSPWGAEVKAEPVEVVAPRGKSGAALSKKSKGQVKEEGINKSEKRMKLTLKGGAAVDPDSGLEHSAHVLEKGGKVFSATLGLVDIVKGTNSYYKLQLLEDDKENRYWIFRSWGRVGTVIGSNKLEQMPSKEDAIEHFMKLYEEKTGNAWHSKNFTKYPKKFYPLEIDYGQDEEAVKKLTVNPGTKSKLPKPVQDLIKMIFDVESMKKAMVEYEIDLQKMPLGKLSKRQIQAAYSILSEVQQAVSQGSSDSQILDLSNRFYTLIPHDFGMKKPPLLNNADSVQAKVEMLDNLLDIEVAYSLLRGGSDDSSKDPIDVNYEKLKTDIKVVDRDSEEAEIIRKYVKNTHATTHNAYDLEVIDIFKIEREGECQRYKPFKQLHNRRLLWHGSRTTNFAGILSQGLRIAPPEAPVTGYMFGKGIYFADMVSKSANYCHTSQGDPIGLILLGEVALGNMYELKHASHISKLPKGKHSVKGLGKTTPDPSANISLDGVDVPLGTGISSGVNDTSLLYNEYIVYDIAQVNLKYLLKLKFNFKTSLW

Turning to `C[C@]1(c2ccc(-c3[nH]c4cc(F)cc5c4c3CONC5=O)cc2)CCCN1` [Compound 1], the IC50 on PARP1 came to 0.0023 µM; at CYP2D6, 11.6 µM. Also, in data set [1], the “Residual content after 60 min of incubation” value worked out at 31.8%.

As usually defined, the IC50 is the concentration that gives 50% inhibition.
